From the supplement of paper PMC10307832

Tests used:
Assay in all cases: relative viability (nuclei count vs DMSO), 5 days (fraction); higher = more cells survive
Sunitinib + Luminespib = compound: CCN(CC)CCNC(=O)c1c(C)[nH]c(/C=C2\C(=O)Nc3ccc(F)cc32)c1C [Sunitinib] + CCNC(=O)c1noc(-c2cc(C(C)C)c(O)cc2O)c1-c1ccc(CN2CCOCC2)cc1 [Luminespib] (partner 0.01 µM)
How it was run: (§1)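 Lung cancer cell lines were seeded in 1536-well plates and dosed by pin tool the next day, with either a single drug or a fixed anchor-drug dose combined with five library-drug doses (not always all listed) spaced in √10 steps. Five days later, one step fixed the cells and stained their nuclei (final 0.05% Triton X-100, 1% formaldehyde, 1 ug/ml Hoechst), and nuclei were counted on 4× images. Relative viability is the nuclei count in treated wells divided by the count in vehicle wells, and each value is the median of duplicate plates.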

Sunitinib + Tozasertib = compound: CCN(CC)CCNC(=O)c1c(C)[nH]c(/C=C2\C(=O)Nc3ccc(F)cc32)c1C [Sunitinib] + Cc1cc(Nc2cc(N3CCN(C)CC3)nc(Sc3ccc(NC(=O)C4CC4)cc3)n2)n[nH]1 [Tozasertib] (partner 0.1 µM)
How it was run: as §1

Sunitinib + Alpelisib = compound: CCN(CC)CCNC(=O)c1c(C)[nH]c(/C=C2\C(=O)Nc3ccc(F)cc32)c1C [Sunitinib] + Cc1nc(NC(=O)N2CCC[C@H]2C(N)=O)sc1-c1ccnc(C(C)(C)C(F)(F)F)c1 [Alpelisib] (partner 2 µM)
How it was run: as §1

Sunitinib + Dasatinib = compound: CCN(CC)CCNC(=O)c1c(C)[nH]c(/C=C2\C(=O)Nc3ccc(F)cc32)c1C [Sunitinib] + Cc1nc(Nc2ncc(C(=O)Nc3c(C)cccc3Cl)s2)cc(N2CCN(CCO)CC2)n1 [Dasatinib] (partner 0.075 µM)
How it was run: as §1

| Cell Line | relative viability (Sunitinib + Luminespib; first compound 0.02 µM) | relative viability (Sunitinib + Luminespib; first compound 0.06325 µM) | relative viability (Sunitinib + Luminespib; first compound 0.2 µM) | relative viability (Sunitinib + Luminespib; first compound 0.6325 µM) | relative viability (Sunitinib + Luminespib; first compound 2 µM) | relative viability (Sunitinib + Tozasertib; first compound 0.02 µM) | relative viability (Sunitinib + Tozasertib; first compound 0.06325 µM) | relative viability (Sunitinib + Tozasertib; first compound 0.2 µM) | relative viability (Sunitinib + Tozasertib; first compound 0.6325 µM) | relative viability (Sunitinib + Tozasertib; first compound 2 µM) | relative viability (Sunitinib + Alpelisib; first compound 0.02 µM) | relative viability (Sunitinib + Alpelisib; first compound 0.06325 µM) | relative viability (Sunitinib + Alpelisib; first compound 0.6325 µM) | relative viability (Sunitinib + Alpelisib; first compound 2 µM) | relative viability (Sunitinib + Dasatinib; first compound 0.02 µM) | relative viability (Sunitinib + Dasatinib; first compound 0.06325 µM) | relative viability (Sunitinib + Dasatinib; first compound 0.2 µM) | relative viability (Sunitinib + Dasatinib; first compound 0.6325 µM) | relative viability (Sunitinib + Dasatinib; first compound 2 µM) | relative viability (Sunitinib + Alpelisib; first compound 0.2 µM) |
| --- | --- | --- | --- | --- | --- | --- | --- | --- | --- | --- | --- | --- | --- | --- | --- | --- | --- | --- | --- | --- |
| NCI-H358 | 0.375 | 0.304 | 0.564 | 0.307 | 0.242 | 0.114 | 0.0928 | 0.123 | 0.103 | 0.109 | 0.902 | 0.803 | 0.762 | 0.451 | 0.151 | 0.187 | 0.182 | 0.19 | 0.174 | – |
| NCI-H441 | 0.32 | 0.275 | 0.332 | 0.396 | 0.339 | 0.706 | 0.639 | 0.652 | 0.71 | 0.494 | – | 0.83 | 0.569 | 0.487 | 0.545 | 0.684 | 0.714 | 0.763 | 0.658 | 0.766 |
| NCI-H460 | 0.0352 | 0.0388 | 0.0351 | 0.0528 | 0.0318 | 0.427 | 0.206 | 0.421 | 0.292 | 0.104 | 0.454 | 0.567 | 0.661 | 0.258 | 0.471 | 0.631 | 0.676 | 0.602 | 0.444 | 0.615 |
| NCI-H520 | 0.22 | 0.231 | 0.214 | 0.22 | 0.228 | 0.44 | 0.384 | 0.435 | 0.375 | 0.421 | 1.01 | 0.841 | – | 0.729 | 0.226 | 0.186 | 0.18 | 0.224 | 0.217 | 0.867 |
| NCI-H596 | 0.884 | 1.05 | 1.09 | 1.03 | 0.941 | 1.01 | 0.944 | 0.985 | 0.912 | 0.705 | 0.476 | 0.596 | 0.485 | 0.42 | 0.599 | 0.731 | 0.709 | 0.709 | 0.467 | 0.604 |
| NCI-H647 | 0.232 | 0.143 | 0.131 | 0.137 | 0.154 | 0.344 | 0.294 | 0.262 | 0.345 | 0.309 | 1.05 | 1.04 | 1.21 | 0.82 | 0.164 | 0.291 | 0.228 | 0.183 | 0.161 | 1.36 |
| NCI-H650 | 0.914 | 0.83 | 0.766 | 0.803 | 0.716 | 0.697 | 0.831 | 0.771 | 0.801 | 0.745 | 0.891 | 0.608 | 1.14 | 1.16 | 0.491 | 0.523 | 0.41 | 0.533 | 0.476 | 1.25 |
| NCI-H661 | 0.896 | 0.934 | 0.949 | 0.896 | 0.83 | 0.357 | 0.379 | 0.356 | 0.363 | 0.401 | 0.597 | 0.547 | 0.582 | 0.759 | 0.923 | 1.12 | 1.06 | 1.07 | 1.1 | 0.515 |
| NCI-H727 | 0.429 | 0.498 | 0.456 | 0.457 | 0.313 | 0.603 | 0.686 | 0.565 | 0.658 | 0.529 | 0.532 | 0.546 | 0.559 | 0.537 | 0.343 | 0.432 | 0.472 | 0.404 | 0.275 | 0.647 |
| NCI-H838 | 0.351 | 0.328 | 0.301 | 0.261 | 0.234 | 0.301 | 0.311 | 0.314 | 0.266 | 0.246 | – | 0.999 | 0.992 | – | 0.324 | 0.293 | 0.322 | 0.291 | 0.285 | 1.16 |
| NCI-H1355 | 0.723 | 0.735 | 0.718 | 0.712 | 0.719 | 0.529 | 0.561 | 0.601 | 0.594 | 0.406 | 0.73 | 0.848 | 0.829 | 0.857 | 0.715 | 0.804 | 0.943 | 0.756 | 0.674 | – |
| NCI-H1395 | 0.72 | 0.375 | 0.723 | 0.706 | 0.602 | 0.751 | 0.72 | 0.696 | 0.846 | 0.779 | 0.995 | 1.14 | 1.31 | 1.05 | 0.394 | 0.463 | 0.453 | 0.406 | 0.266 | 1.72 |
| NCI-H1437 | 1.03 | 1.12 | 1.23 | 1.12 | 1.17 | 0.391 | 0.302 | 0.408 | 0.39 | 0.41 | 0.949 | 0.974 | 1.01 | 0.905 | 0.489 | 0.418 | 0.478 | 0.39 | 0.412 | – |
| NCI-H1651 | 0.758 | 0.766 | 1.06 | 0.942 | 1.14 | 0.618 | 0.687 | 0.787 | 0.584 | 0.548 | 0.738 | 0.969 | 1.02 | 0.991 | 0.389 | 0.506 | 0.59 | 0.462 | 0.527 | 1.17 |
| NCI-H1666 | 0.983 | – | 1.07 | 1.07 | 1.12 | 0.676 | 0.685 | 0.719 | 0.655 | 0.71 | 0.865 | 0.938 | 1.02 | 0.971 | 0.77 | 0.948 | 0.936 | 0.862 | 0.942 | 1.03 |
| NCI-H1734 | 0.166 | 0.186 | 0.188 | 0.149 | 0.212 | 0.265 | 0.262 | 0.25 | 0.325 | 0.247 | 0.626 | 0.673 | 0.669 | 0.641 | 0.456 | 0.43 | 0.503 | 0.451 | 0.46 | 0.869 |
